Data from patent US20160333419A1, “GENE SIGNATURES ASSOCIATED WITH SENSITIVITY TO MDM2 INHIBITORS” (DAIICHI SANKYO COMPANY, LIMITED, priority 2014, published 2016).

Columns and labels:
Test in all cases: OncoPanel cytotoxicity assay
Format in all cases: cell-based
Thp1 = details: Homo sapiens, THP-1, 72 hour incubation
Procedure: (§1) Cells were grown in RPMI 1640, 10% FBS, 2 mM L-alanyl-L-Glutamine, 1 mM Na Pyruvate, or a special medium in a humidified atmosphere of 5% CO2 at 37° C. Cells were seeded into 384-well plates and incubated in a humidified atmosphere of 5% CO2 at 37° C. Test compounds were added 24 hours post cell seeding. At the same time, a time zero, untreated cell plate was generated as a control. After a 72 hour incubation period, cells were fixed and stained with nuclear dye to allow visualization of nuclei.
(§2) Compounds were serially diluted 3.16-fold and assayed over 10 concentrations of inhibitor in a final assay concentration of 0.1% DMSO from the highest test concentration specified in the sample information chapter. Automated fluorescence microscopy was carried out using a GE Healthcare InCell Analyzer 1000, and images were collected with a 4× objective. Twelve bit tiff images were acquired using the InCell Analyzer 1000 3.2 and analyzed with Developer Toolbox 1.6 software.
(§3) Cell proliferation was measured by the signal intensity of the incorporated nuclear dye. The cell proliferation assay output is referred to as the relative cell count. To determine the cell proliferation end point, the cell proliferation data output is transformed to percent of control (POC) using the following formula: […]
(§4) Relative cell count IC50 (IC50) is the test compound's concentration that produces 50% of the cell proliferation inhibitory response or 50% cytotoxicity level. IC50 values were calculated using nonlinear regression to fit data to a sigmoidal 4 point, 4 parameter One-Site dose response model, where: y (fit)=A+[(B−A)/(1+((C/x)̂D))]. Curve-fitting, IC50 calculations and report generation were performed using a custom data reduction engine MathIQ based software (AIM). […] In these cases, the IC50 values were expressed as 40 μM and 10 μM, respectively (Table 2).

SJRH30 = details: Homo sapiens, 72 hour incubation
Procedure: as §1, §2, §3, §4

HEL-92-1-7 = details: Homo sapiens, HEL 92.1.7, 72 hour incubation
Procedure: as §1, §2, §3, §4

SK-N-FI = details: Homo sapiens, 72 hour incubation
Procedure: as §1, §2, §3, §4

CRO-AP2 = details: Homo sapiens, 72 hour incubation
Procedure: as §1, §2, §3, §4

A7 = details: Homo sapiens, 72 hour incubation
Procedure: as §1, §2, §3, §4

SW1116 = details: Homo sapiens, SW 1116, 72 hour incubation
Procedure: as §1, §2, §3, §4

HT-29 = details: Homo sapiens, 72 hour incubation
Procedure: as §1, §2, §3, §4

K562 = details: Homo sapiens, 72 hour incubation
Procedure: as §1, §2, §3, §4

SNU-423 = details: Homo sapiens, 72 hour incubation
Procedure: as §1, §2, §3, §4

FaDu = details: Homo sapiens, 72 hour incubation
Procedure: as §1, §2, §3, §4

BV-173 = details: Homo sapiens, 72 hour incubation
Procedure: as §1, §2, §3, §4

NCI-H747 = details: Homo sapiens, 72 hour incubation
Procedure: as §1, §2, §3, §4

HepG2 = details: Homo sapiens, 72 hour incubation
Procedure: as §1, §2, §3, §4

CAL-62 = details: Homo sapiens, 72 hour incubation
Procedure: as §1, §2, §3, §4

HEC-1-A = details: Homo sapiens, 72 hour incubation
Procedure: as §1, §2, §3, §4

SiHa = details: Homo sapiens, 72 hour incubation
Procedure: as §1, §2, §3, §4

SK-UT-1 = details: Homo sapiens, 72 hour incubation
Procedure: as §1, §2, §3, §4

HLE = details: Homo sapiens, 72 hour incubation
Procedure: as §1, §2, §3, §4

AU565 = details: Homo sapiens, 72 hour incubation
Procedure: as §1, §2, §3, §4

DMS114 = details: Homo sapiens, DMS-114, 72 hour incubation
Procedure: as §1, §2, §3, §4

C-4 II = details: Homo sapiens, 72 hour incubation
Procedure: as §1, §2, §3, §4

AN3 CA = details: Homo sapiens, 72 hour incubation
Procedure: as §1, §2, §3, §4

SW48 = details: Homo sapiens, 72 hour incubation
Procedure: as §1, §2, §3, §4

647-V = details: Homo sapiens, 72 hour incubation
Procedure: as §1, §2, §3, §4

DoTc2 4510 = details: Homo sapiens, 72 hour incubation
Procedure: as §1, §2, §3, §4

C-33A = details: Homo sapiens, 72 hour incubation
Procedure: as §1, §2, §3, §4

J-RT3-T3-5 = details: Homo sapiens, 72 hour incubation
Procedure: as §1, §2, §3, §4

RKO = details: Homo sapiens, 72 hour incubation
Procedure: as §1, §2, §3, §4

HT-3 = details: Homo sapiens, 72 hour incubation
Procedure: as §1, §2, §3, §4

CCRFCEM = details: Homo sapiens, CCRF-CEM, 72 hour incubation
Procedure: as §1, §2, §3, §4

HT-1080 = details: Homo sapiens, 72 hour incubation
Procedure: as §1, §2, §3, §4

NCI-H508 = details: Homo sapiens, 72 hour incubation
Procedure: as §1, §2, §3, §4

WiDr = details: Homo sapiens, 72 hour incubation
Procedure: as §1, §2, §3, §4

Hs 294T = details: Homo sapiens, 72 hour incubation
Procedure: as §1, §2, §3, §4

U-138MG = details: Homo sapiens, U138-MG, 72 hour incubation
Procedure: as §1, §2, §3, §4

Ramos (RA 1) = details: Homo sapiens, 72 hour incubation
Procedure: as §1, §2, §3, §4

A549 = details: Homo sapiens, 72 hour incubation
Procedure: as §1, §2, §3, §4

SKOV3 = details: Homo sapiens, SK-OV-3, 72 hour incubation
Procedure: as §1, §2, §3, §4

What does the source list for `CC[C@@H]1CNC2(CC2)CN1C(=O)[C@@H]1C[C@@H](F)CN1C(=O)C1=C(C(C)C)N2C(=N[C@@](C)(c3ccc(Cl)nc3)[C@H]2c2ccc(Cl)c(F)c2)S1` [Compound A, [(5R,6S)-5-(4-Chloro-3-fluorophenyl)-6-(6-chloropyridin-3-yl)-6-methyl-3-(propan-2-yl)-5,6-dihydroimidazo[2,1-b][1,3]thiazol-2-yl][(2S,4R)-2-{[(6R)-6-ethyl-4,7-diazaspiro[2.5]oct-7-yl]carbonyl}-4-fluoropyrrolidin-1-yl]methanone]?
IC50 (Thp1): > 40 µM; IC50 (SJRH30): > 40 µM; IC50 (HEL-92-1-7): > 40 µM; IC50 (SK-N-FI): > 40 µM; IC50 (CRO-AP2): 0.204 µM; IC50 (A7): > 40 µM; IC50 (SW1116): > 40 µM; IC50 (HT-29): 33.5 µM; IC50 (K562): > 40 µM; IC50 (SNU-423): > 40 µM; IC50 (FaDu): > 40 µM; IC50 (BV-173): 0.601 µM; IC50 (NCI-H747): > 40 µM; IC50 (HepG2): 0.335 µM; IC50 (CAL-62): > 40 µM; IC50 (HEC-1-A): > 40 µM; IC50 (SiHa): > 40 µM; IC50 (SK-UT-1): > 40 µM; IC50 (HLE): 28.9 µM; IC50 (AU565): 23.7 µM; IC50 (DMS114): > 40 µM; IC50 (C-4 II): > 40 µM; IC50 (AN3 CA): > 40 µM; IC50 (SW48): 1.09 µM; IC50 (647-V): > 40 µM; IC50 (DoTc2 4510): 39.6 µM; IC50 (C-33A): > 40 µM; IC50 (J-RT3-T3-5): > 40 µM; IC50 (RKO): 0.654 µM; IC50 (HT-3): > 40 µM; IC50 (CCRFCEM): > 40 µM; IC50 (HT-1080): 0.282 µM; IC50 (NCI-H508): > 40 µM; IC50 (WiDr): 34.8 µM; IC50 (Hs 294T): 1.23 µM; IC50 (U-138MG): > 40 µM; IC50 (Ramos (RA 1)): > 40 µM; IC50 (A549): 0.401 µM; IC50 (SKOV3): > 40 µM

With `CC1(C)CCC2(CC1)N[C@@H](C(=O)N[C@@H]1CC[C@@H](C(N)=O)OC1)[C@H](c1ccnc(Cl)c1F)[C@]21C(=O)Nc2cc(Cl)ccc21` [Compound B, (3′R,4′S,5′R)—N-[(3R,6S)-6-carbamoyltetrahydro-2H-pyran-3-yl]-6″-chloro-4′-(2-chloro-3-fluoropyridin-4-yl)-4,4-dimethyl-2″-oxo-1″,2″-dihydrodispiro[cyclohexane-1,2′-pyrrolidine-3′,3″-indole]-5′-carboxamide] as the compound, how does the IC50 (Thp1) read?
Its IC50 is over 10 µM.

What about the IC50 (SJRH30) of the same compound?
Its IC50 is 7.24 µM.

What about the IC50 (HEL-92-1-7) of the same compound?
Its IC50 is over 10 µM.

And the IC50 (SK-N-FI)?
The IC50 was over 10 µM.

And the IC50 (CRO-AP2)?
The IC50 was 0.0191 µM.

What about the IC50 (A7) of the same compound?
Its IC50 is 3.59 µM.

And the IC50 (SW1116)?
Its IC50 is over 10 µM.

What about the IC50 (HT-29) of the same compound?
The IC50 was 5.14 µM.

And the IC50 (K562)?
Its IC50 is over 10 µM.

What about the IC50 (SNU-423) of the same compound?
The IC50 was over 10 µM.

And the IC50 (FaDu)?
Its IC50 is over 10 µM.

And the IC50 (BV-173)?
The IC50 was 0.0873 µM.

What about the IC50 (NCI-H747) of the same compound?
Its IC50 is over 10 µM.

And the IC50 (HepG2)?
Its IC50 is 0.0584 µM.

And the IC50 (CAL-62)?
Its IC50 is over 10 µM.

And the IC50 (HEC-1-A)?
The IC50 was over 10 µM.

And the IC50 (SiHa)?
Its IC50 is over 10 µM.

What about the IC50 (SK-UT-1) of the same compound?
Its IC50 is over 10 µM.

And the IC50 (HLE)?
Its IC50 is over 10 µM.

And the IC50 (AU565)?
The IC50 was over 10 µM.

And the IC50 (DMS114)?
Its IC50 is over 10 µM.

What about the IC50 (C-4 II) of the same compound?
The IC50 was 9.1 µM.

What about the IC50 (AN3 CA) of the same compound?
Its IC50 is 8.75 µM.

And the IC50 (SW48)?
Its IC50 is 0.125 µM.

And the IC50 (647-V)?
The IC50 was over 10 µM.

What about the IC50 (DoTc2 4510) of the same compound?
The IC50 was over 10 µM.

And the IC50 (C-33A)?
The IC50 was 5.49 µM.

And the IC50 (J-RT3-T3-5)?
Its IC50 is over 10 µM.

What about the IC50 (RKO) of the same compound?
Its IC50 is 0.107 µM.

And the IC50 (HT-3)?
The IC50 was over 10 µM.

And the IC50 (CCRFCEM)?
Its IC50 is over 10 µM.

And the IC50 (HT-1080)?
Its IC50 is 0.062 µM.

What about the IC50 (NCI-H508) of the same compound?
The IC50 was over 10 µM.

What about the IC50 (WiDr) of the same compound?
The IC50 was 5.58 µM.

And the IC50 (Hs 294T)?
The IC50 was 3.24 µM.

And the IC50 (U-138MG)?
The IC50 was over 10 µM.

What about the IC50 (Ramos (RA 1)) of the same compound?
The IC50 was 8.66 µM.

What about the IC50 (A549) of the same compound?
Its IC50 is 0.0769 µM.

What about the IC50 (SKOV3) of the same compound?
Its IC50 is over 10 µM.
